Laboratory results taken from patent US20030060472A1, “Novel substituted nitrocatechols, their use in the treatment of some central and peripheral nervous system disorders and pharmaceutical compositions containing them” (priority 2001, published 2003).

Legend:
Brain COMT = assay: Ex vivo COMT activity in mice brain homogenates after administration by gastric tube; details: for Brain COMT (% of control) 1 h / Brain COMT (% of control) 6 h: mice brain homogenates, means ± S.E.M. of 4-8; for Brain COMT (% of control) 1 h: 1 h after administration by gastric tube; for Brain COMT (% of control) 6 h: 6 h after administration by gastric tube; for Duration of COMT inhibition and activity in the brain: conclusion from the mice study
Liver COMT = assay: Ex vivo COMT activity in mice liver homogenates after administration by gastric tube; details: for Potency upon liver COMT compared with brain COMT: mice, after oral administration; for Liver COMT (% of control) 1 h / Liver COMT (% of control) 6 h: mice liver homogenates, means ± S.E.M. of 4-8; for Liver COMT (% of control) 1 h: 1 h after administration by gastric tube; for Liver COMT (% of control) 6 h: 6 h after administration by gastric tube
COMT = molecular target: T1, COMT (Homo sapiens, UniProt P21964); assay: COMT activity (O-methylation of adrenaline to metanephrine) in intact SK-N-SH cells; format: cell-based; details: test compound 100 nM, means ± SEM, n = 4-8
T1 construct: O-methylationof adrenaline in intact SK-N-SH cells; host or cells: SK-N-SH cells
T1 sequence (P21964 1-271): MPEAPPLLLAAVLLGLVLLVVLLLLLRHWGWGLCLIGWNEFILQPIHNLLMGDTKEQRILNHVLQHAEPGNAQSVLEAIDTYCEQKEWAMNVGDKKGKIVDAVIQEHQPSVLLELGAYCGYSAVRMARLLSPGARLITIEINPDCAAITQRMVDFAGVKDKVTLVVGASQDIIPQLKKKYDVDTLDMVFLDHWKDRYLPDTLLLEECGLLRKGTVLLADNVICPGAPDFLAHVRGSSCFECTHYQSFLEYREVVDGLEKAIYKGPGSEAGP

Compound | Brain COMT (% of control) 1 h (Brain COMT) | Brain COMT (% of control) 6 h (Brain COMT) | Potency upon liver COMT compared with brain COMT (Liver COMT) | Duration of COMT inhibition and activity in the brain (Brain COMT) | other results
Cl.O=C(CN1CCCCCC1)c1cc(O)c(O)c([N+](=O)[O-])c1 [Compound 1, 2-Azepan-1-yl-1-(3,4-dihydroxy-5-nitro-phenyl)-ethanone hydrochloride] | 45.0 ± 15.0 % of control | 102.0 ± 19.0 % of control |  |  | 
Cl.O=C(CCN1CCCCC1)c1cc(O)c(O)c([N+](=O)[O-])c1 [Compound 2, 1-(3,4-Dihydroxy-5-nitro-phenyl)-3-piperidin-1-yl-propan-1-one hydrochloride] |  |  | much more potent upon liver COMT than brain COMT | long acting COMT inhibitor with limited activity in the brain | 
Cl.O=C(CC(c1ccccc1)N1CCCCC1)c1cc(O)c(O)c([N+](=O)[O-])c1 (stereo not shown) [Compound 3, 1-(3,4-Dihydroxy-5-nitro-phenyl)-3-phenyl-3-piperidin-1-yl-propan-1-one hydrochloride] |  |  | much more potent upon liver COMT than brain COMT | long acting COMT inhibitor with limited activity in the brain | 
Cl.O=C(CC(c1ccccc1)N1CCOCC1)c1cc(O)c(O)c([N+](=O)[O-])c1 (stereo not shown) [Compound 5, 1-(3,4-Dihydroxy-5-nitro-phenyl)-3-morpholin-4-yl-3-phenyl-propan-1-one hydrochloride] |  |  | equally potent in inhibiting liver and brain COMT activity |  | 
CC1CCCCN1CC(=O)c1cc(O)c(O)c([N+](=O)[O-])c1.Cl (stereo not shown) [Compound 6, 1-(3,4-Dihydroxy-5-nitro-phenyl)-2-(2-methyl-piperidin-1-yl)-ethanone hydrochloride] | 37.0 ± 3.3 % of control | 66.0 ± 2.6 % of control |  |  | 
CCN(CC)C(C)C(=O)c1cc(O)c(O)c([N+](=O)[O-])c1.Cl (stereo not shown) [Compound 7, 2-Diethylamino-1-(3,4-dihydroxy-5-nitro-phenyl)-propan-1-one hydrochloride] | 74.0 ± 12.0 % of control | 126.0 ± 8.0 % of control |  |  | COMT activity (% of control) (COMT): 9.0 ± 0.2 % of control; Liver COMT (% of control) 1 h (Liver COMT): 38.4 ± 2.8 % of control; Liver COMT (% of control) 6 h (Liver COMT): 57.1 ± 4.9 % of control
O=C(COc1ccc2ccccc2c1)c1cc(O)c(O)c([N+](=O)[O-])c1 [Compound 10, 1-(3,4-Dihydroxy-5-nitro-phenyl)-2-(naphthalen-2-yloxy)-ethanone] |  |  | much more potent upon liver COMT than brain COMT | long acting COMT inhibitor with limited activity in the brain | 
CC1CN(CC(=O)c2cc(O)c(O)c([N+](=O)[O-])c2)CC(C)O1.Cl (stereo not shown) [Compound 11, 1-(3,4-Dihydroxy-5-nitro-phenyl)-2-(2,6-dimethyl-morpholin-4-yl)-ethanone hydrochloride] | 80.0 ± 5.0 % of control | 103.0 ± 7.0 % of control |  |  | 
CC1CC(C)CN(CC(=O)c2cc(O)c(O)c([N+](=O)[O-])c2)C1.Cl (stereo not shown) [Compound 12, 1-(3,4-Dihydroxy-5-nitro-phenyl)-2-(3,5-dimethyl-piperidin-1-yl)-ethanone hydrochloride] | 32.0 ± 2.0 % of control | 84.0 ± 6.0 % of control |  |  | 
Cl.N#CC1(c2ccccc2)CCN(CCC(=O)c2cc(O)c(O)c([N+](=O)[O-])c2)CC1 [Compound 15, 1-[3-(3,4-Dihydroxy-5-nitro-phenyl)-3-oxo-propyl]-4-phenyl-piperidine-4-carbonitrile hydrochloride] | 93.0 ± 9.0 % of control | 122.0 ± 9.0 % of control |  |  | COMT activity (% of control) (COMT): 2.9 ± 0.3 % of control; Liver COMT (% of control) 1 h (Liver COMT): 51.7 ± 5.9 % of control; Liver COMT (% of control) 6 h (Liver COMT): 37.9 ± 8.4 % of control
Cl.O=C(CCN1CCCCCCC1)c1cc(O)c(O)c([N+](=O)[O-])c1 [Compound 16, 3-Azocan-1-yl-1-(3,4-dihydroxy-5-nitro-phenyl)-propan-1-one hydrochloride] |  |  | equally potent in inhibiting liver and brain COMT activity |  | 
Cl.Cl.O=C(CCN1CCN(c2cccc(C(F)(F)F)c2)CC1)c1cc(O)c(O)c([N+](=O)[O-])c1 [Compound 18, 1-(3,4-Dihydroxy-5-nitro-phenyl)-3-[4-(3-trifluoromethyl-phenyl)-piperazin-1-yl]-propan-1-one dihydrochloride] |  |  | much more potent upon liver COMT than brain COMT | long acting COMT inhibitor with limited activity in the brain | 
